This passage reports inhibition and IC50 results from US20260234157A1, “COMPOUND AND METHOD FOR TARGETED DEGRADATION OF ANDROGEN RECEPTOR” (Gan & Lee Pharmaceuticals Co., Ltd., priority 2023, published 2026).

Numbering of substitutions follows the chain as printed.

One assay has as its target T1, AR protein (Homo sapiens, UniProt P10275, T878A).
T1 construct: degradation activity of the compounds disclosed in the present disclosure on AR protein in LNCaP cells; host or cells: LNCaP FGC
T1 sequence (P10275 1-920 T878A): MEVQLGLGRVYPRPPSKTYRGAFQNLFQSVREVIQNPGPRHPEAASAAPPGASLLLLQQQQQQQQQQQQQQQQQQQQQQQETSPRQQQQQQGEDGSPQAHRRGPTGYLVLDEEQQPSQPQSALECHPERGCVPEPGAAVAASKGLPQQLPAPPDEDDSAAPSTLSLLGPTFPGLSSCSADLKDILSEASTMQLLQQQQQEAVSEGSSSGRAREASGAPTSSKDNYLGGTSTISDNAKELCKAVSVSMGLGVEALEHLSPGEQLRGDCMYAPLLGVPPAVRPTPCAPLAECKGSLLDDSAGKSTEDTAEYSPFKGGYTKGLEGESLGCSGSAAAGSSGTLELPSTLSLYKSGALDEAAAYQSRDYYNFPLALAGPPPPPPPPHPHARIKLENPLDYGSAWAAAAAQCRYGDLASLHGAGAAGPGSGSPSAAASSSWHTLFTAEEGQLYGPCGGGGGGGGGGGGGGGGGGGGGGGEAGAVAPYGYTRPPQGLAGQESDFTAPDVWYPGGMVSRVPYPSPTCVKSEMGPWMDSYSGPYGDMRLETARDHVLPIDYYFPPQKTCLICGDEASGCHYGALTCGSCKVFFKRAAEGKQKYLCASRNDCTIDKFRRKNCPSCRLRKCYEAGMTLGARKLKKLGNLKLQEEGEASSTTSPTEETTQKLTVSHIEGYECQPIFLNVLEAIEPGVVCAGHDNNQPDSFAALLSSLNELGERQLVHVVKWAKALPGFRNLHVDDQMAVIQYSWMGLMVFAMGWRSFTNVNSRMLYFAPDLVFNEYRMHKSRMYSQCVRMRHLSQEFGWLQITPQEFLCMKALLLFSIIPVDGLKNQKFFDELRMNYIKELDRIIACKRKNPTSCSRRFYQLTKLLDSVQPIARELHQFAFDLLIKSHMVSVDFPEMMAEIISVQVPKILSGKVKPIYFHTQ
Nature of the assay: Degradation of AR protein in LNCaP cells (Western blot). Type of assay: cell-based. The settings on record: LNCaP cells, compound 10 nM, 8 hours, Western blot grayscale, GAPDH internal reference; read-out: Degradation rates of the AR protein in LNCaP cells, 10 nM (%). The procedure, abridged:
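Percent AR degradation was derived from GAPDH-normalised Western blot band intensities (infrared detection) in LNCaP lysates.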
A general note: A western blot detects proteins with antibodies after separation by electrophoresis.
In the case of `N#Cc1ccc(O[C@H]2CC[C@H](NC(=O)c3ccc(N4CCC(CN5CC6(CCc7cc8c(cc7O6)C(=O)N(C6CCC(=O)NC6=O)C8)C5)CC4)nn3)CC2)cc1Cl` (stereo partly drawn) [Compound 8], the inhibition at 0.01 µM stood at 78%.
For the compound `CC1(CN2CCC3(CCc4cc5c(cc4O3)C(=O)N(C3CCC(=O)NC3=O)C5=O)CC2)CCN(c2ccc(C(=O)N[C@H]3CC[C@H](Oc4ccc(C#N)c(Cl)c4)CC3)nn2)CC1` (stereo partly drawn) [Compound 17], the inhibition at 0.01 µM was 35%.
Take `N#Cc1ccc(O[C@H]2CC[C@H](NC(=O)c3ccc(N4CCC(CN5CCC6(CC5)Oc5cc7c(cc5CC6(F)F)C(=O)N(C5CCC(=O)NC5=O)C7=O)CC4)nn3)CC2)cc1Cl` (stereo partly drawn) [Compound 18]: the inhibition at 0.01 µM was determined as 7%.

The same assay, now with this note: LNCaP cells, compound 100 nM, 8 hours, Western blot grayscale, GAPDH internal reference; read-out: Degradation rates of the AR protein in LNCaP cells, 100 nM (%).
For `N#Cc1ccc(O[C@H]2CC[C@H](NC(=O)c3ccc(N4CCC(CN5CC6(CCc7cc8c(cc7O6)C(=O)N(C6CCC(=O)NC6=O)C8)C5)CC4)nn3)CC2)cc1Cl` (stereo partly drawn) [Compound 8], the inhibition at 0.1 µM was 67%.
On the same count and under the same terms, the same measure for `CC1(CN2CCC3(CCc4cc5c(cc4O3)C(=O)N(C3CCC(=O)NC3=O)C5=O)CC2)CCN(c2ccc(C(=O)N[C@H]3CC[C@H](Oc4ccc(C#N)c(Cl)c4)CC3)nn2)CC1` (stereo partly drawn) [Compound 17]: 65%; for `N#Cc1ccc(O[C@H]2CC[C@H](NC(=O)c3ccc(N4CCC(CN5CCC6(CC5)Oc5cc7c(cc5CC6(F)F)C(=O)N(C5CCC(=O)NC5=O)C7=O)CC4)nn3)CC2)cc1Cl` (stereo partly drawn) [Compound 18]: 57%.

A further assay has as its target T2, AR protein (Homo sapiens, UniProt P10275).
T2 construct: degradation activity of the compounds disclosed in the present disclosure on AR protein in VCaP cells; host or cells: VCaP
T2 sequence (P10275 1-920): T1 sequence (P10275 1-920 T878A) with A878T
Briefly: Degradation of AR protein in VCaP cells (Western blot). Type of assay: cell-based. The conditions noted are these: compound at 10 nM, 8 hours, read-out: Degradation rate of the AR protein in VCaP cells, 10 nM (%). In a few lines: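 Western blot readout: AR band grayscale normalised to GAPDH, used to derive degradation rate. Lysates came from VCaP cells exposed to compound for 8 h, with solvent controls run in parallel.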
Take `N#Cc1ccc(O[C@H]2CC[C@H](NC(=O)c3ccc(N4CCC(CN5CC6(CCc7cc8c(cc7O6)C(=O)N(C6CCC(=O)NC6=O)C8)C5)CC4)nn3)CC2)cc1Cl` (stereo partly drawn) [Compound 8]: the inhibition at 0.01 µM worked out at 24%.
Still for that read-out and setting: the same measure for `CC1(CN2CCC3(CCc4cc5c(cc4O3)C(=O)N(C3CCC(=O)NC3=O)C5=O)CC2)CCN(c2ccc(C(=O)N[C@H]3CC[C@H](Oc4ccc(C#N)c(Cl)c4)CC3)nn2)CC1` (stereo partly drawn) [Compound 17]: 39%; for `N#Cc1ccc(O[C@H]2CC[C@H](NC(=O)c3ccc(N4CCC(CN5CCC6(CC5)Oc5cc7c(cc5CC6(F)F)C(=O)N(C5CCC(=O)NC5=O)C7=O)CC4)nn3)CC2)cc1Cl` (stereo partly drawn) [Compound 18]: 59%.

Still in this assay, the particulars now being: compound at 100 nM, 8 hours, read-out: Degradation rate of the AR protein in VCaP cells, 100 nM (%).
Take `N#Cc1ccc(O[C@H]2CC[C@H](NC(=O)c3ccc(N4CCC(CN5CC6(CCc7cc8c(cc7O6)C(=O)N(C6CCC(=O)NC6=O)C8)C5)CC4)nn3)CC2)cc1Cl` (stereo partly drawn) [Compound 8]: the inhibition at 0.1 µM was found to be 76%.
In the case of `CC1(CN2CCC3(CCc4cc5c(cc4O3)C(=O)N(C3CCC(=O)NC3=O)C5=O)CC2)CCN(c2ccc(C(=O)N[C@H]3CC[C@H](Oc4ccc(C#N)c(Cl)c4)CC3)nn2)CC1` (stereo partly drawn) [Compound 17], the inhibition at 0.1 µM was 80%.
Still for that read-out and setting: the same measure for `N#Cc1ccc(O[C@H]2CC[C@H](NC(=O)c3ccc(N4CCC(CN5CCC6(CC5)Oc5cc7c(cc5CC6(F)F)C(=O)N(C5CCC(=O)NC5=O)C7=O)CC4)nn3)CC2)cc1Cl` (stereo partly drawn) [Compound 18]: 69%.

Another assay concerns LNCaP FGC cells. Nature of the assay: Inhibition of proliferation of LNCaP cells (WST-8). Type of assay: cell-based. The settings on record: Homo sapiens, LNCaP, 96 h, LNCaP FGC cells, 96 hours, WST-8 absorbance at 450 nm; read-out: IC50 for inhibiting the proliferation of LNCaP cells. Here is the method: The cells were cultured in a cell culture incubator with 5% CO2 at 37° C. overnight. […] On the sixth day, 96 well plates were taken out, and 20 μL of WST-8 (Beytime, C0040) reagent was added to each well.
For orientation: Tetrazolium assays rely on reduction of a dye to a coloured formazan, in cell work by metabolically active cells.
Regarding `N#Cc1ccc(O[C@H]2CC[C@H](NC(=O)c3ccc(N4CCC(CN5CC6(CCc7cc8c(cc7O6)C(=O)N(C6CCC(=O)NC6=O)C8)C5)CC4)nn3)CC2)cc1Cl` (stereo partly drawn) [Compound 8], the IC50 was determined as 2090 nM.
On the same count and under the same terms, the same measure for `CC1(CN2CCC3(CCc4cc5c(cc4O3)C(=O)N(C3CCC(=O)NC3=O)C5=O)CC2)CCN(c2ccc(C(=O)N[C@H]3CC[C@H](Oc4ccc(C#N)c(Cl)c4)CC3)nn2)CC1` (stereo partly drawn) [Compound 17]: 800 nM.
For `N#Cc1ccc(O[C@H]2CC[C@H](NC(=O)c3ccc(N4CCC(CN5CCC6(CC5)Oc5cc7c(cc5CC6(F)F)C(=O)N(C5CCC(=O)NC5=O)C7=O)CC4)nn3)CC2)cc1Cl` (stereo partly drawn) [Compound 18], the IC50 worked out at 4940 nM.

The next assay has as its system VCaP cells. Nature of the assay: Inhibition of proliferation of VCaP cells (WST-8). Type of assay: cell-based. The settings on record: Homo sapiens; VCaP cells, 168 hours, WST-8 absorbance at 450 nm; read-out: IC50 for inhibiting the proliferation of VCaP cells. As to the method:
The inhibitory activity of the compounds disclosed in the present disclosure on the proliferation of VCaP cells
On the first day of the experiment, […] were inoculated in 96 well plates at a density of 15000 cells per well using DMEM medium containing 10% fetal bovine serum, with 100 μL of cell suspension per well. The cells were cultured in a cell culture incubator with 5% CO2 at 37° C. overnight. […] On the ninth day, 96 well plates were taken out, and 20 μL of WST-8 (Beytime, C0040) reagent was added to each well.
Consider `N#Cc1ccc(O[C@H]2CC[C@H](NC(=O)c3ccc(N4CCC(CN5CC6(CCc7cc8c(cc7O6)C(=O)N(C6CCC(=O)NC6=O)C8)C5)CC4)nn3)CC2)cc1Cl` (stereo partly drawn) [Compound 8], for which the IC50 is 1 nM.
As for `CC1(CN2CCC3(CCc4cc5c(cc4O3)C(=O)N(C3CCC(=O)NC3=O)C5=O)CC2)CCN(c2ccc(C(=O)N[C@H]3CC[C@H](Oc4ccc(C#N)c(Cl)c4)CC3)nn2)CC1` (stereo partly drawn) [Compound 17], the IC50 turned out to be 580 nM.
With `N#Cc1ccc(O[C@H]2CC[C@H](NC(=O)c3ccc(N4CCC(CN5CCC6(CC5)Oc5cc7c(cc5CC6(F)F)C(=O)N(C5CCC(=O)NC5=O)C7=O)CC4)nn3)CC2)cc1Cl` (stereo partly drawn) [Compound 18], the IC50 worked out at 110 nM.
